Values quoted from earlier work, collected in patent publication US20240050486A1, “METHODS OF GENERATING CORTICAL EXCITATORY NEURONS” (Memorial Sloan-Kettering Cancer Center, priority 2021, published 2024).

Columns and labels:
[1] = test system: WNT pathway (Porcupine); settings: at the level of the pathway activator Porcupine; read-out: IC50 WNT pathway inhibition
[2] = test system: SW480 cells

| SMILES | IC50 [1] | degradation of β-catenin [2] | protein levels of the axin-GSK3β complex [2] |
| --- | --- | --- | --- |
| Cc1ccc2nc(NC(=O)CSc3nc4c(c(=O)n3-c3ccccc3)SCC4)sc2c1 [IWP-2, N-(6-methyl-1,3-benzothiazol-2-yl)-2-[(4-oxo-3-phenyl-6,7-dihydrothieno[3,2-d]pyrimidin-2-yl)thio]acetamide] | 27 nM | – | – |
| Oc1nc(-c2ccc(C(F)(F)F)cc2)nc2c1CSCC2 [XAV939] | – | promotes the degradation of β-catenin | increases the protein levels of the axin-GSK3β complex |
